We go through one molecule from paper PMC5218480 (PLoS ONE, 2017).

Molecules are shown by their SMILES.

This assay relates to MV-4-11 cells. The experiment in a line: Gene expression microarray analysis (Affymetrix PrimeView) and GSEA. Also on record: RFU PODN (11730768_x_at) / Fold change /veh PODN (11730768_x_at) / RFU LINC00158 (11744669_a_at) / Fold change /veh LINC00158 (11744669_a_at) / RFU DUSP10 (11751237_a_at) / Fold change /veh DUSP10 (11751237_a_at) / RFU ID3 (11757404_x_at) / Fold change /veh ID3 (11757404_x_at) / RFU PLEKHG5 (11737974_s_at) / Fold change /veh PLEKHG5 (11737974_s_at) / RFU LRRC4B (11730491_at) / Fold change /veh LRRC4B (11730491_at) / RFU GIMAP4 (11747438_a_at) / Fold change /veh GIMAP4 (11747438_a_at) / RFU KRT8 (11758183_x_at) / Fold change /veh KRT8 (11758183_x_at) / RFU CNN1 (11734310_a_at) / Fold change /veh CNN1 (11734310_a_at) / RFU VPS37D (11726825_at) / Fold change /veh VPS37D (11726825_at) / RFU C10orf10 (11716522_x_at) / Fold change /veh C10orf10 (11716522_x_at) / RFU KIR2DL2 /// KIR2DL4 /// KIR2DL5A /// KIR2DL5B /// KIR2DS1 /// KIR2DS2 /// KIR2DS3 /// KIR2DS4 /// KIR3DL3 /// KIR3DL3 /// KIR3DS1 (11738374_at) / Fold change /veh KIR2DL2 /// KIR2DL4 /// KIR2DL5A /// KIR2DL5B /// KIR2DS1 /// KIR2DS2 /// KIR2DS3 /// KIR2DS4 /// KIR3DL3 /// KIR3DL3 /// KIR3DS1 (11738374_at) / RFU C1QL1 (11718748_at) / Fold change /veh C1QL1 (11718748_at) / RFU TMPRSS4 (11747572_a_at) / Fold change /veh TMPRSS4 (11747572_a_at) / RFU HAMP (11756126_x_at) / Fold change /veh HAMP (11756126_x_at) / RFU RNFT2 (11725882_a_at) / Fold change /veh RNFT2 (11725882_a_at) / RFU NR4A2 (11747474_a_at) / Fold change /veh NR4A2 (11747474_a_at) / RFU ABCC12 (11746883_a_at) / Fold change /veh ABCC12 (11746883_a_at) / RFU TMEM136 (11760407_x_at) / Fold change /veh TMEM136 (11760407_x_at) / RFU CLDN22 /// WWC2 (11732394_at) / Fold change /veh CLDN22 /// WWC2 (11732394_at) / RFU HLA-DPB1 (11760878_x_at) / Fold change /veh HLA-DPB1 (11760878_x_at) / RFU SPINT1 (11716480_a_at) / Fold change /veh SPINT1 (11716480_a_at) / RFU GAP43 (11754022_s_at) / Fold change /veh GAP43 (11754022_s_at) / RFU A4GNT (11735810_at) / Fold change /veh A4GNT (11735810_at) / RFU PRB3 (11715151_x_at) / Fold change /veh PRB3 (11715151_x_at) / RFU TUBB4B (11761932_at) / Fold change /veh TUBB4B (11761932_at) / RFU CAPN14 (11732068_a_at) / Fold change /veh CAPN14 (11732068_a_at) / RFU TMCC2 (11721928_a_at) / Fold change /veh TMCC2 (11721928_a_at) / RFU IRGQ (11745062_a_at) / Fold change /veh IRGQ (11745062_a_at) / RFU FAM174B (11720279_a_at) / Fold change /veh FAM174B (11720279_a_at) / RFU TMPRSS4 (11748680_a_at) / Fold change /veh TMPRSS4 (11748680_a_at) / RFU FAM212B (11763350_a_at) / Fold change /veh FAM212B (11763350_a_at) / RFU PLEKHG5 (11743358_a_at) / Fold change /veh PLEKHG5 (11743358_a_at) / RFU ZSCAN30 (11745921_a_at) / Fold change /veh ZSCAN30 (11745921_a_at) / RFU CMKLR1 (11741424_a_at) / Fold change /veh CMKLR1 (11741424_a_at) / RFU LOC101060620 /// MAPK8IP1 (11723275_at) / Fold change /veh LOC101060620 /// MAPK8IP1 (11723275_at) / RFU SPTSSB (11747773_x_at) / Fold change /veh SPTSSB (11747773_x_at) / RFU PRSS12 (11739890_at) / Fold change /veh PRSS12 (11739890_at) / RFU BIN1 (11741810_x_at) / Fold change /veh BIN1 (11741810_x_at) / RFU WNT11 (11732464_a_at) / Fold change /veh WNT11 (11732464_a_at) / RFU C10orf10 (11716521_a_at) / Fold change /veh C10orf10 (11716521_a_at) / RFU C5orf56 (11738089_at) / Fold change /veh C5orf56 (11738089_at) / RFU CYB561 (11721691_x_at) / Fold change /veh CYB561 (11721691_x_at) / RFU ANKRD19P (11752326_a_at) / Fold change /veh ANKRD19P (11752326_a_at) / RFU OR2T12 /// OR2T33 /// OR2T8 (11738714_s_at) / Fold change /veh OR2T12 /// OR2T33 /// OR2T8 (11738714_s_at) / RFU VCAN (11748164_a_at) / Fold change /veh VCAN (11748164_a_at) / RFU JSRP1 (11732532_at) / Fold change /veh JSRP1 (11732532_at) / RFU KRTAP10-11 (11738290_x_at) / Fold change /veh KRTAP10-11 (11738290_x_at) / RFU MYO3A (11730013_a_at) / Fold change /veh MYO3A (11730013_a_at) / RFU EBF3 (11725865_a_at) / Fold change /veh EBF3 (11725865_a_at) / RFU CAMK2N1 (11719241_x_at) / Fold change /veh CAMK2N1 (11719241_x_at) / RFU C5orf56 (11738088_a_at) / Fold change /veh C5orf56 (11738088_a_at) / RFU OLFML3 (11715873_a_at) / Fold change /veh OLFML3 (11715873_a_at) / RFU LOC100653217 /// NTM (11731650_a_at) / Fold change /veh LOC100653217 /// NTM (11731650_a_at) / RFU MAPK11 (11762145_a_at) / Fold change /veh MAPK11 (11762145_a_at) / RFU FIZ1 (11724087_x_at) / Fold change /veh FIZ1 (11724087_x_at) / RFU OASL (11726364_x_at) / Fold change /veh OASL (11726364_x_at) / RFU SOX15 (11748057_x_at) / Fold change /veh SOX15 (11748057_x_at) / RFU CD79A (11719716_a_at) / Fold change /veh CD79A (11719716_a_at) / RFU HIST1H1D (11736915_at) / Fold change /veh HIST1H1D (11736915_at) / RFU CASKIN2 (11723855_a_at) / Fold change /veh CASKIN2 (11723855_a_at) / RFU LOC730098 (11760151_x_at) / Fold change /veh LOC730098 (11760151_x_at) / RFU OR4N2 (11742367_at) / Fold change /veh OR4N2 (11742367_at) / RFU PRRT2 (11749266_a_at) / Fold change /veh PRRT2 (11749266_a_at) / RFU SNX32 (11753110_a_at) / Fold change /veh SNX32 (11753110_a_at) / RFU CDHR5 (11726645_a_at) / Fold change /veh CDHR5 (11726645_a_at) / RFU RCAN1 (11760418_a_at) / Fold change /veh RCAN1 (11760418_a_at) / RFU FAM167A (11723789_a_at) / Fold change /veh FAM167A (11723789_a_at) / RFU FAM26E (11764081_at) / Fold change /veh FAM26E (11764081_at) / RFU ISYNA1 (11749810_s_at) / Fold change /veh ISYNA1 (11749810_s_at) / RFU ACY1 (11761880_at) / Fold change /veh ACY1 (11761880_at) / RFU 11764098_at / Fold change /veh 11764098_at / RFU SAMD14 (11745864_x_at) / Fold change /veh SAMD14 (11745864_x_at) / RFU NPB (11741838_a_at) / Fold change /veh NPB (11741838_a_at) / RFU TMPRSS6 (11731388_a_at) / Fold change /veh TMPRSS6 (11731388_a_at) / RFU KRTAP10-2 (11738614_at) / Fold change /veh KRTAP10-2 (11738614_at) / RFU ARHGAP8 /// PRR5-ARHGAP8 (11727945_x_at) / Fold change /veh ARHGAP8 /// PRR5-ARHGAP8 (11727945_x_at) / RFU KRTAP5-7 /// NADSYN1 (11734609_at) / Fold change /veh KRTAP5-7 /// NADSYN1 (11734609_at) / RFU RASL12 (11751679_a_at) / Fold change /veh RASL12 (11751679_a_at) / RFU CDKN2B (11736163_a_at) / Fold change /veh CDKN2B (11736163_a_at) / RFU PRF1 (11729649_at) / Fold change /veh PRF1 (11729649_at) / RFU, ZNF638 /// ZNF638-IT1 / Fold change vs veh, ZNF638 /// ZNF638-IT1 / RFU, PANK3 / Fold change vs veh, PANK3 / RFU, SH3YL1 / Fold change vs veh, SH3YL1 / RFU, ZEB2 / Fold change vs veh, ZEB2 / RFU, NRIP1 / Fold change vs veh, NRIP1 / RFU, PTTG1IP / Fold change vs veh, PTTG1IP / RFU, CAPN2 / Fold change vs veh, CAPN2 / RFU, MED14 / Fold change vs veh, MED14 / RFU, SNORA58 / Fold change vs veh, SNORA58 / RFU, C1orf63 / Fold change vs veh, C1orf63 / RFU, LRRFIP1 / Fold change vs veh, LRRFIP1 / RFU, NDUFAF7 / Fold change vs veh, NDUFAF7 / RFU, SLC12A2 / Fold change vs veh, SLC12A2 / RFU, IBTK / Fold change vs veh, IBTK / RFU, ESF1 / Fold change vs veh, ESF1 / Fold change vs veh, TMEM50B / RFU, TAOK1 / Fold change vs veh, TAOK1 / RFU, ACBD3 / Fold change vs veh, ACBD3 / RFU, TMA16 / Fold change vs veh, TMA16 / RFU, RWDD3 / Fold change vs veh, RWDD3 / RFU, BCAT1 / Fold change vs veh, BCAT1 / RFU, EDEM3 / Fold change vs veh, EDEM3 / RFU, TMEM33 / Fold change vs veh, TMEM33 / RFU, WDR75 / Fold change vs veh, WDR75 / RFU, AHCTF1 / Fold change vs veh, AHCTF1 / RFU, TFRC / Fold change vs veh, TFRC / RFU, ZDHHC17 / Fold change vs veh, ZDHHC17 / RFU, NOM1 / Fold change vs veh, NOM1 / RFU, ARL8B / Fold change vs veh, ARL8B / RFU, ZBTB11 / Fold change vs veh, ZBTB11 / RFU, TAMM41 / Fold change vs veh, TAMM41 / RFU, KIAA1704 /// LOC100996395 / Fold change vs veh, KIAA1704 /// LOC100996395 / RFU, ING1 / Fold change vs veh, ING1 / RFU, TRMT61B / Fold change vs veh, TRMT61B / RFU, FUBP3 / Fold change vs veh, FUBP3 / RFU, TP53 / Fold change vs veh, TP53 / RFU, TNKS2 / Fold change vs veh, TNKS2 / RFU, ZFP14 / Fold change vs veh, ZFP14 / RFU, ACTR2 / Fold change vs veh, ACTR2 / RFU, PPP3R1 / Fold change vs veh, PPP3R1 / RFU, PIK3R1 / Fold change vs veh, PIK3R1 / RFU, HNRNPA1 / Fold change vs veh, HNRNPA1 / RFU, RNF170 / Fold change vs veh, RNF170 / RFU, ZNF28 / Fold change vs veh, ZNF28 / RFU, RNGTT / Fold change vs veh, RNGTT / RFU, OGT / Fold change vs veh, OGT / RFU, BRD1 / Fold change vs veh, BRD1 / RFU, MARS / Fold change vs veh, MARS / RFU, ZNF655 / Fold change vs veh, ZNF655 / RFU, FAHD1 / Fold change vs veh, FAHD1 / RFU, BDP1 / Fold change vs veh, BDP1 / RFU, LRRCC1 / Fold change vs veh, LRRCC1 / RFU, ARID1A / Fold change vs veh, ARID1A / RFU, ZNF146 / Fold change vs veh, ZNF146 / RFU, ZNF330 / Fold change vs veh, ZNF330 / RFU, GPN3 / Fold change vs veh, GPN3 / RFU, C9orf123 / Fold change vs veh, C9orf123 / RFU, N4BP2L2 / Fold change vs veh, N4BP2L2 / RFU, ARFIP1 / Fold change vs veh, ARFIP1 / RFU, FAM179B / Fold change vs veh, FAM179B / RFU, BCL10 / Fold change vs veh, BCL10 / RFU, UHRF1BP1L / Fold change vs veh, UHRF1BP1L / RFU, BET1 / Fold change vs veh, BET1 / RFU, CNOT2 / Fold change vs veh, CNOT2 / RFU, ZNF268 / Fold change vs veh, ZNF268 / Fold change vs veh, ZNF507 / RFU, DGCR2 / Fold change vs veh, DGCR2 / RFU, WDSUB1 / Fold change vs veh, WDSUB1 / Fold change vs veh, HSP90B1 /// MIR3652 / RFU, ADSS / Fold change vs veh, ADSS / RFU, GK / Fold change vs veh, GK / RFU, ZNF148 / Fold change vs veh, ZNF148 / RFU, TAF9 / Fold change vs veh, TAF9 / RFU, SLC1A5 / Fold change vs veh, SLC1A5 / RFU, SLMO2 / Fold change vs veh, SLMO2 / RFU, ABCC4 / Fold change vs veh, ABCC4 / RFU, LOC101060439 /// RAP1B / Fold change vs veh, LOC101060439 /// RAP1B / RFU, RFX7 / Fold change vs veh, RFX7 / RFU, GTPBP10 / Fold change vs veh, GTPBP10 / RFU, CNEP1R1 / Fold change vs veh, CNEP1R1 / RFU, BIVM-ERCC5 /// ERCC5 / Fold change vs veh, BIVM-ERCC5 /// ERCC5 / RFU, ILF3 / Fold change vs veh, ILF3 / RFU 11762660_at / Fold change /veh 11762660_at / RFU VCAN (11757783_s_at) / Fold change /veh VCAN (11757783_s_at) / RFU DDX43 (11728927_at) / Fold change /veh DDX43 (11728927_at) / RFU KRT8 (11758188_x_at) / Fold change /veh KRT8 (11758188_x_at) / RFU NKD1 (11759106_at) / Fold change /veh NKD1 (11759106_at) / RFU SRD5A1 (11742802_a_at) / Fold change /veh SRD5A1 (11742802_a_at) / RFU TPSAB1 /// TPSB2 (11721975_s_at) / Fold change /veh TPSAB1 /// TPSB2 (11721975_s_at) / RFU GSTM3 (11746129_a_at) / Fold change /veh GSTM3 (11746129_a_at) / RFU IL23R (11737362_x_at) / Fold change /veh IL23R (11737362_x_at) / RFU TMEM51 (11727254_a_at) / Fold change /veh TMEM51 (11727254_a_at) / RFU PIWIL2 (11732686_x_at) / Fold change /veh PIWIL2 (11732686_x_at) / RFU ORM1 (11744905_x_at) / Fold change /veh ORM1 (11744905_x_at) / RFU CCDC152 (11743942_at) / Fold change /veh CCDC152 (11743942_at) / RFU ECM1 (11717891_a_at) / Fold change /veh ECM1 (11717891_a_at) / RFU IL23R (11748794_a_at) / Fold change /veh IL23R (11748794_a_at) / RFU TNFAIP8L3 (11732012_x_at) / Fold change /veh TNFAIP8L3 (11732012_x_at) / RFU MBOAT4 (11741988_at) / Fold change /veh MBOAT4 (11741988_at) / RFU 11764193_at / Fold change /veh 11764193_at / RFU TMEM53 (11763286_at) / Fold change /veh TMEM53 (11763286_at) / RFU MAGEB2 (11727129_at) / Fold change /veh MAGEB2 (11727129_at) / RFU TMEM200A (11744735_a_at) / Fold change /veh TMEM200A (11744735_a_at) / RFU CCDC152 (11751479_a_at) / Fold change /veh CCDC152 (11751479_a_at) / RFU FAM211A (11726209_a_at) / Fold change /veh FAM211A (11726209_a_at) / RFU RGS16 (11746705_a_at) / Fold change /veh RGS16 (11746705_a_at) / RFU VCAN (11755009_s_at) / Fold change /veh VCAN (11755009_s_at) / RFU RHOB (11743442_s_at) / Fold change /veh RHOB (11743442_s_at) / RFU RGS16 (11720943_a_at) / Fold change /veh RGS16 (11720943_a_at) / RFU RGS16 (11720944_at) / Fold change /veh RGS16 (11720944_at) / RFU, VPS4B / Fold change vs veh, VPS4B / RFU, CREB1 / Fold change vs veh, CREB1 / RFU, DNAJC13 / Fold change vs veh, DNAJC13 / RFU, GNAQ / Fold change vs veh, GNAQ / RFU, CDK5R1 / Fold change vs veh, CDK5R1 / RFU, ZRANB3 / Fold change vs veh, ZRANB3 / RFU, CUL4A / Fold change vs veh, CUL4A / RFU, CCNY / Fold change vs veh, CCNY / RFU, UFL1 / Fold change vs veh, UFL1 / RFU, COG3 / Fold change vs veh, COG3 / RFU, DIAPH2 / Fold change vs veh, DIAPH2 / RFU, SKA2 / Fold change vs veh, SKA2 / RFU, AFF3 / Fold change vs veh, AFF3 / RFU, LMF1 / Fold change vs veh, LMF1 / RFU, IPO11 / Fold change vs veh, IPO11 / RFU, DFFB / Fold change vs veh, DFFB / RFU, FOXP1 / Fold change vs veh, FOXP1 / RFU, CARD8 / Fold change vs veh, CARD8 / RFU, STRN3 / Fold change vs veh, STRN3 / RFU, ADK / Fold change vs veh, ADK / RFU, RASSF2 / Fold change vs veh, RASSF2 / RFU, WIPF1 / Fold change vs veh, WIPF1 / RFU, LARP1B / Fold change vs veh, LARP1B / RFU, RASA1 / Fold change vs veh, RASA1 / RFU, RB1 / Fold change vs veh, RB1 / RFU, PPFIA1 / Fold change vs veh, PPFIA1 / RFU, MAT2A / Fold change vs veh, MAT2A / RFU, CCT5 / Fold change vs veh, CCT5 / RFU, WDR92 / Fold change vs veh, WDR92 / RFU, CUX1 / Fold change vs veh, CUX1 / RFU, TTC7A / Fold change vs veh, TTC7A / RFU, TMEM135 / Fold change vs veh, TMEM135 / RFU, DEPTOR / Fold change vs veh, DEPTOR / RFU, CPM / Fold change vs veh, CPM / RFU, DNAJB6 / Fold change vs veh, DNAJB6 / RFU, CACNA2D3 / Fold change vs veh, CACNA2D3 / RFU, DTX4 / Fold change vs veh, DTX4 / RFU, TFCP2 / Fold change vs veh, TFCP2 / RFU, GMCL1 /// GMCL1P1 / Fold change vs veh, GMCL1 /// GMCL1P1 / RFU, AEBP2 / Fold change vs veh, AEBP2 / RFU, SNHG1 /// SNORD22 /// SNORD25 /// SNORD26 /// SNORD27 /// SNORD28 /// SNORD29 /// SNORD31 / Fold change vs veh, SNHG1 /// SNORD22 /// SNORD25 /// SNORD26 /// SNORD27 /// SNORD28 /// SNORD29 /// SNORD31 / Fold change (Aza/veh), C12orf56 (ProbeSet 11735607_a_at) / Fold change (ACY-1035/veh), C12orf56 (ProbeSet 11735607_a_at) / Fold change (Aza/veh), FGFR1OP (ProbeSet 11751329_s_at) / Fold change (ACY-1035/veh), FGFR1OP (ProbeSet 11751329_s_at) / Fold change (Aza/veh), VPS36 (ProbeSet 11739960_a_at) / Fold change (ACY-1035/veh), VPS36 (ProbeSet 11739960_a_at) / RFU SYPL1 (11715823_x_at) / Fold change /veh SYPL1 (11715823_x_at) / RFU IGFBP7 (11715501_s_at) / Fold change /veh IGFBP7 (11715501_s_at) / RFU REEP3 (11722064_at) / Fold change /veh REEP3 (11722064_at) / RFU IGLL1 (11728026_x_at) / Fold change /veh IGLL1 (11728026_x_at): dose or concentration left out as unconfirmed. The note with it: MV-4-11 cells, 48 hours. The assay is classed as cell-based, human.

In the case of `Nc1ncn([C@@H]2O[C@H](CO)[C@@H](O)[C@H]2O)c(=O)n1` [azacitidine], the “Fold change /veh EBF3 (11725865_a_at)” value amounted to 1.12.
